According to patent US20150329558A1, “FUSED HETEROCYCLIC COMPOUNDS AS ION CHANNEL MODULATORS” (Gilead Sciences, Inc., priority 2011, published 2015):
Where two headings read alike, the source gives them in different places.

What was measured:
[1] = Microsomal stability assay, dog; type: in vitro ADME; conditions: metabolic stability, dog liver microsomes 0.5 mg/mL, substrate 3 uM
Description: (§1) The micorsomal stability assay is generally performed as follows. Format: 15 compounds (and 1 control verapamil) in 3 different species in duplicate sets Substrate: 3 uM Protein concentration: 0.5 mg/mL (for dog, rat, and human liver microsomes) Cofactor: 1×NADPH-Regenerating system Time-points: 2, 12, 25, 45, and 65 minutes [table] Sample preparation: 25 uL at each timepoint is added to plate with 225 uL quenching solution (50% MeOH, 25% ACN, 25% H2O, and 50 nM […]). After plates are vortexed, centrifuge for 30 minutes. Microsomal solutions: take 400 uL of 20 mg/mL microsomes and add to 13,680 uL 100 mM KPO4 buffer. Using an 8-channel, add 650 uL of this solution to the designated two columns on a short plate. The order should be dog microsomes in columns 1 and 2, rat microsomes in columns 3 and 4, and human microsomes in columns 5 and 6. Keep on ice before use. Place this plate in incubator 1 on the TECAN countertop.

[2] = target: wild-type human cardiac sodium channel, hNav1.5 (late INa) (Homo sapiens, UniProt Q14524); experiment: Late INa screening assay (QPatch whole cell patch clamp); type: cell-based
Procedure, shortened: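 HEK293 cells stably expressing hNav1.5 alpha subunit without beta subunits, QPatch automated whole-cell clamp at 23-25° C, CsF-based internal solution pH 7.4. Late INa induced by 10 μM tefluthrin; 250 ms steps to −20 mV from −120 mV at 0.1 Hz, compounds at 1 μM. Percent block of mean current 225–250 ms into the step.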

[3] = target: wild-type human cardiac sodium channel, hNav1.5 (peak INa) (Homo sapiens, UniProt Q14524); experiment: Peak INa screening assay (tonic and use-dependent block); type: cell-based
Description: The late sodium current (Late INa) and peak sodium current (Peak INa) assays are performed on an automated electrophysiology platform, QPatch 16× (Sophion Bioscience, Copenhagen, Denmark), which uses the whole cell patch clamp technique to measure currents through the cell membrane of up to 16 cells at a time. The assay uses an HEK293 (human embryonic kidney) cell line heterologously expressing the wild-type human cardiac sodium channel, hNav1.5, purchased from Millipore (Billerica, Mass.). No beta subunits were coexpressed with the Na channel alpha subunit. Cells are maintained with standard tissue culture procedures and stable channel expression is maintained with 400 μg/mL Geneticin in the culture medium. […] Experiments are carried out at 23-25° C. For both the Late INa and Peak INa assays, series resistance compensation is set to 100% and series resistance and whole-cell compensation are performed automatically. Currents are digitized at 25 kHz and low-pass filtered at 12 kHz and 10 kHz for the late and peak INa assays, respectively. Currents through open sodium channels are automatically recorded and stored in the Sophion Bioscience Oracle database (Sophion Bioscience, Copehagen, Denmark). Analysis is performed using QPatch Assay and database software and data are compiled in Excel. Compound stocks are routinely made by the Gilead Sample Bank in plastic vials to 10 mM in dimethyl sulfoxide (DMSO). In some cases, when compounds are not soluble in DMSO, they are made in 100% ethanol. Stocks are sonicated as necessary. […] The intracellular solution used to perfuse the inside of the cells for both the Late INa and Peak INa assays contains: 120 mM CsF, 20 mM CsCl, 5 mM EGTA, 5 mM HEPES and pH adjusted to 7.4 with CsOH. Compounds are diluted in extracellular solution to 1 μM in glass vials and then transferred to glass well plates before robotic addition to the cells. […] Compounds were also evaluated for their effect in several other assays, including their effect on Peak INa. Good separation between the concentrations of test compound to reduce late and peak INa is beneficial to enable separation of the desired effect to reduce late INa-induced electrical and mechanical dysfunction from the undesired effect to reduce peak INa, which can lead to slowing or block of conduction of electrical excitation in the heart. It is contemplated that the compounds of Formula I avoid significant block of peak INa. Since the peak INa in the cells used herein can be very large, introducing artifacts in the recording, the concentration of Na^+ in the bath can be reduced to 20 mM and a nonpermeant cation added to compensate for the Na^+ that was removed to maintain the osmolarity and ionic strength of the solution (see solution details below). Analysis of peak INa generally requires correction for rundown before determining the % block of peak current by the tested compound. […] A low stimulation frequency of 0.1 Hz was used to determine the effect of the test compound when the channel spent most of the time in the resting (closed) state and provides information about Tonic Block (TB). A higher stimulation frequency (3 Hz) was used to measure block of the channel when it spent more time in the activated and inactivated states and provided a measure of Use-Dependent Block (UDB). Use-dependent block refers to the accumulation of block with increased frequency of channel activation. Block of cardiac peak INa by compounds of this invention is increased with an increase in the frequency of stimulation from 0.1 to 1-5 Hz (frequencies encountered either in the normal heart or during tachycardia). It is therefore expected that reduction of peak INa by compounds of this invention will be greater at high heart rates, such as those during tachyarrhythmias, than at normal heart rates. […]

[4] = Microsomal stability assay, human; type: in vitro ADME; conditions: metabolic stability, human liver microsomes 0.5 mg/mL, substrate 3 uM
Description: as §1

[5] = Microsomal stability assay, rat; type: in vitro ADME; conditions: metabolic stability, rat liver microsomes 0.5 mg/mL, substrate 3 uM
Description: as §1

[6] = % inhibition at 1 μM, read-out: NAv1.5*-LATE-
[7] = percent block of late INa, compound at 1 μM, 10 μM Tefluthrin, HEK293 hNav1.5, read-out: Late INa 1 μM
[8] = % inhibition at 1 μM, tonic block, read-out: NAv1.5*-PEAK-TB-
[9] = % inhibition at 1 μM, use-dependent block 3 Hz, read-out: NAv1.5*-PEAK-UDB-3 HZ-
[10] = tonic block of peak INa, 0.1 Hz, 1 μM, read-out: Peak TB 1 μM
[11] = use-dependent block of peak INa, 3 Hz, 1 μM, read-out: Peak UDB 1 μM

Sequence of wild-type human cardiac sodium channel, hNav1.5 (late INa) (Q14524 whole entry): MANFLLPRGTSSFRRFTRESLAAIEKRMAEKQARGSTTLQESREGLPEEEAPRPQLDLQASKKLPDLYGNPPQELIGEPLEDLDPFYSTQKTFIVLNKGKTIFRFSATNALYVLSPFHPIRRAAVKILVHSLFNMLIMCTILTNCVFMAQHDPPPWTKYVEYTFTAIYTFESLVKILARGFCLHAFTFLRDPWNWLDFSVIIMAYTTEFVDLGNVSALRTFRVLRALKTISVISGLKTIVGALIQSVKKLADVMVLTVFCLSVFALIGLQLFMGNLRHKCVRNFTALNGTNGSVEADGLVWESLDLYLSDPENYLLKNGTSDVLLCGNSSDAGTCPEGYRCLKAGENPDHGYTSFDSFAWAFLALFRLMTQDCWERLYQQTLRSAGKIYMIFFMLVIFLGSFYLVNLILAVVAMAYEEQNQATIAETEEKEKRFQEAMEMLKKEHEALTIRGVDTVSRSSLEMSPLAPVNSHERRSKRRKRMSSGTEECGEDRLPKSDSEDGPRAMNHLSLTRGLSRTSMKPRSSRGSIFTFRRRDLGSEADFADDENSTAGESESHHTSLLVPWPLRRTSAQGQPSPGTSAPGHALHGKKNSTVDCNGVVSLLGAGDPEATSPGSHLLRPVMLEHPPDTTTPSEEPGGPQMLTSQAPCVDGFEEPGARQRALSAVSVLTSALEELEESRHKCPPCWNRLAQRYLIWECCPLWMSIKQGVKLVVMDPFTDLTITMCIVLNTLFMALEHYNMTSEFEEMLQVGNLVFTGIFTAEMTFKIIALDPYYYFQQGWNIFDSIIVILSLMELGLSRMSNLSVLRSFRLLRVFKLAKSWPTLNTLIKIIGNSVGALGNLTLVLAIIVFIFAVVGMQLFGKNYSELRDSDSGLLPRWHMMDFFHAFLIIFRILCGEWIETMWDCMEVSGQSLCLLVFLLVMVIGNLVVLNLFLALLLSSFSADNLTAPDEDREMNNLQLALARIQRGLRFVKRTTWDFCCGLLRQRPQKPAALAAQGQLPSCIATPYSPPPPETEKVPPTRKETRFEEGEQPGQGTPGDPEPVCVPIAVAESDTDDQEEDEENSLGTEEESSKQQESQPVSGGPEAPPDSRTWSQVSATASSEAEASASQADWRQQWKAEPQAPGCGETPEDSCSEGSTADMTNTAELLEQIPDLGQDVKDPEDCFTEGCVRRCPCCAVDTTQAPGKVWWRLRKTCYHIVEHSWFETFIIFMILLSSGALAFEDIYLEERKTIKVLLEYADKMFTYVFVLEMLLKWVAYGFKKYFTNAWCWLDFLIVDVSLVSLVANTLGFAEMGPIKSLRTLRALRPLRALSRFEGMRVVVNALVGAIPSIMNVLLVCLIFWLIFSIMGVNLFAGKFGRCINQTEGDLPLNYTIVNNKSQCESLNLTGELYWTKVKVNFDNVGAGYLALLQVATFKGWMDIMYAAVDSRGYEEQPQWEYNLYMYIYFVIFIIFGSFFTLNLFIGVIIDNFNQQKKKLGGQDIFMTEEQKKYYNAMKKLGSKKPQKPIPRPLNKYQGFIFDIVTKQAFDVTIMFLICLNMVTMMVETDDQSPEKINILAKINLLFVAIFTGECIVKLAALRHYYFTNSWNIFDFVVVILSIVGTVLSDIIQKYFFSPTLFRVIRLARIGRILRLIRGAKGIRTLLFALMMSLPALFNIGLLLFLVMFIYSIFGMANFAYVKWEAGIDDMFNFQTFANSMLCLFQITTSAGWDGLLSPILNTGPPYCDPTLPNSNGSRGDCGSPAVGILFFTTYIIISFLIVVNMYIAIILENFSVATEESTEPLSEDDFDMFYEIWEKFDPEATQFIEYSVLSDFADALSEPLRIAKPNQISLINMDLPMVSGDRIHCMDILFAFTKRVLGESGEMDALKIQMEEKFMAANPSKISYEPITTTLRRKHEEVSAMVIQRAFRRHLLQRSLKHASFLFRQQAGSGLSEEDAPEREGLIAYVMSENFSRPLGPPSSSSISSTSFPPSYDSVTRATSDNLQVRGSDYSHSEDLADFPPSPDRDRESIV
Sequence of wild-type human cardiac sodium channel, hNav1.5 (peak INa) (Q14524 whole entry): as above

SMILES | MS Dog THalf [1] | inhibition at 1 µM [2, 6] | inhibition at 1 µM [2, 7] | inhibition at 1 µM [3, 8] | inhibition at 1 µM [3, 9] | inhibition at 1 µM [3, 10] | inhibition at 1 µM [3, 11] | MS Human THalf [4] | MS Rat THalf [5]
O=C(Cc1ccccn1)N1CCc2ccc(-c3ccc(C(F)(F)F)cc3)cc2C1 [IX-29, 2-(pyridin-2-yl)-1-(7-(4-(trifluoromethyl)phenyl)-3,4-dihydroisoquinolin-2(1H)-yl)ethanone] | 138 min | 45% | 45% | 10% | 12% | 10% | 12% | 33 min | 48 min
O=c1c2cc(-c3ccc(Oc4ccc(Cl)cc4)cc3)ccc2nnn1CCn1cccn1 [II-29, 3-(2-(1H-pyrazol-1-yl)ethyl)-6-(4-(4-chlorophenoxyl)phenyl)benzo[d][1,2,3]triazin-4(3H)-one] | 99 min | – | 52% | – | – | 44% | 67% | 51 min | 27 min
O=c1c2cc(-c3ccc(OC(F)(F)F)cc3)ccc2nnn1Cc1cc(-c2ccccn2)on1 [II-47, 3-((5-(pyridin-2-yl)isoxazol-3-yl)methyl)-6-(4-(trifluoromethoxy)phenyl)benzo[d][1,2,3]triazin-4(3H)-one] | 24 min | – | 44% | – | – | 6% | 4% | 339 min | 71 min
O=c1c2cc(-c3ccc(OC(F)(F)F)cc3)ccc2nnn1CC1(CN2CCCC2)CC1 [II-63, 3-((1-(pyrrolidin-1-ylmethyl)cyclopropyl)methyl)-6-(4-(trifluoromethoxy)phenyl)benzo[d][1,2,3]triazin-4(3H)-one] | 36 min | – | 46% | – | – | 23% | 50% | 34 min | 31 min
C[C@@H]1CC[C@@H](C)N1C(=O)N1CCc2ccc(-c3ccc(C(F)(F)F)cc3)cc2C1 [IX-105] | 74 min | 43% | 43% | 6% | 3% | 6% | 3% | 35 min | 14 min
Cc1nc(Cn2nnc3ccc(-c4ccc(OC(F)(F)F)cc4)cc3c2=O)co1 [II-99, 3-((2-methyloxazol-4-yl)methyl)-6-(4-(trifluoromethoxy)phenyl)benzo[d][1,2,3]triazin-4(3H)-one] | 62 min | – | 47% | – | – | 9% | 0% | 128 min | 42 min
O=c1c2cc(C#Cc3ccc(OC(F)(F)F)cc3)ccc2nnn1CCOc1ncccn1 [VII-1, 3-(2-(pyrimidin-2-yloxy)ethyl)-6-((4-(trifluoromethoxy)phenyl)ethynyl)benzo[d][1,2,3]triazin-4(3H)-one] | 114 min | – | 55% | – | – | 7% | 1% | > 395 min | 44 min
O=c1c2cc(-c3ccc(OC(F)(F)F)cc3)ccc2nnn1Cc1coc(C2CC2)n1 [II-100, 3((2-cyclopropyloxazol-4-yl)methyl)-6-(4-(trifluoromethoxy)phenyl)benzo[d][1,2,3]triazin-4(3H)-one] | 76 min | – | 50% | – | – | 15% | 2% | 52 min | 35 min
O=c1c2cc(-c3ccc(OC(F)(F)F)cc3)ccc2cnn1CCOc1cnccn1 [III-39, 2-(2-(pyrazin-2-yloxy)ethyl)-7-(4-(trifluoromethoxy)phenyl)phthalazin-1 (2H)-one] | 14 min | – | 47% | – | – | 7% | 0% | 44 min | 30 min
Cc1cc(Cn2nnc3ccc(-c4ccc(OC(F)(F)F)cc4)cc3c2=O)on1 [II-25, 3-((3-methylisoxazol-5-yl)methyl)-6-(4-(trifluoromethoxy)phenyl)benzo[d][1,2,3]triazin-4(3H)-one] | 117 min | – | 50% | – | – | 9% | 2% | 363 min | 298 min
O=C(c1ncccn1)N1CCc2ccc(-c3ccc(OC(F)(F)F)cc3)cc2C1 [IX-11, pyrimidin-2-yl(7-(4-(trifluoromethoxy)phenyl)-3,4-dihydroisoquinolin-2(1H)-yl)methanone] | 332 min | 44% | 44% | 17% | 22% | 17% | 22% | 145 min | 348 min
COc1cc(OC)nc(Cn2nnc3ccc(-c4ccc(OC(F)(F)F)cc4)cc3c2=O)n1 [II-44, 3-((4,6-dimethoxypyrimidin-2-yl)methyl)-6-(4-(trifluoromethoxy)phenyl)benzo[d][1,2,3]triazin-4(3H)-one] | 283 min | – | 47% | – | – | 10% | 4% | 167 min | 97 min
Cc1cc(C)n(CC2(Cn3nnc4ccc(-c5ccc(OC(F)(F)F)cc5)cc4c3=O)CC2)n1 [II-64, 3-((1-((3,5-dimethyl-1H-pyrazol-1-yl)methyl)cyclopropyl)methyl)-6-(4-(trifluoromethoxy)phenyl)benzo[d][1,2,3]triazin-4(3H)-one] | 7 min | – | 43% | – | – | 3% | 9% | 11 min | 16 min
Cc1ccnn1CCn1ncc2ccc(-c3ccc(OC(F)(F)F)cc3)cc2c1=O [III-32, 2-(2-(5-methyl-1H-pyrazol-1-yl)ethyl)-7-(4-(trifluoromethoxy)phenyl)phthalazin-1 (2H)-one] | 16 min | – | 53% | – | – | 18% | 23% | 20 min | 12 min
